Test results from patent US8921307B2, “Synthetic linear apelin mimetics for the treatment of heart failure” (priority 2012, dated 2014).
Where a SMILES comes first, the peptide text is derived from it. [ ]: non-standard residue; d: D form. Cha = N[C@@H](CC1CCCCC1)C(=O)O; pGlu = O=C1CC[C@@H](C(=O)O)N1; dNle = CCCC[C@@H](N)C(=O)O; dNva = CCC[C@@H](N)C(=O)O; Nle = CCCC[C@H](N)C(=O)O; Aib = CC(C)(N)C(=O)O

Columns and labels:
[1] = Surrogate Activity-Based Plasma Stability Assay; type: in vitro ADME; conditions: rat, Surrogate activity-based Plasma stability t½
Protocol: Stability half-life was then calculated by the formula, t½=0.693÷k Surrogate Activity-Based Plasma Stability Assay: […]
2) Calculate slope of value above and […]

hAPJ = biological target: T1, hAPJ (Homo sapiens, UniProt P35414); experiment: hAPJ Calcium Flux Assay; type: cell-based; conditions: Chem-5 APJ stable cells, FLIPR calcium flux stimulation; read-out: hAPJ Ca^2+ Flux EC50
T1 sequence (P35414 1-380): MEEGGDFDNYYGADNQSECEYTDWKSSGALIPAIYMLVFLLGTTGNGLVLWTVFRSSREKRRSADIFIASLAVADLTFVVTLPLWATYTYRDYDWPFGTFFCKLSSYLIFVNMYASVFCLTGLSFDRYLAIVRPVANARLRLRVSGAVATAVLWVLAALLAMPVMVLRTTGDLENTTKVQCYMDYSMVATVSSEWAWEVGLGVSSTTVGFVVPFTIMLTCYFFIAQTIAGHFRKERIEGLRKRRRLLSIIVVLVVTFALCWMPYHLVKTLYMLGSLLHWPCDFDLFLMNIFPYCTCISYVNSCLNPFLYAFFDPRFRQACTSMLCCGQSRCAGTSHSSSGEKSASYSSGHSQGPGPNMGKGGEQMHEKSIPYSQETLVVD
Protocol: Chem-5 APJ stable cells (Millipore # HTS068C) were plated in 384-well format with 10,000 cells/well in 25 ul growth media, then grown 24 hours in a 37° C. tissue culture incubator. One hour before the assay, 25 ul/well FLIPR Calcium 4 dye (Molecular Devices R8142) with 2.5 mM probenecid was added, and cells were incubated one hour in a 37° C. tissue culture incubator. Peptides were solubilized in HBSS, HEPES & 0.1% BSA buffer, and serially-diluted 10-fold, from 50 uM to […], in triplicate. FLIPR Tetra was used to add peptide to the cells with dye (1:5, for final peptide concentrations ranging from 10 uM to […]). FLIPR dye inside the cells emitted fluorescence after binding to calcium, while fluorescence from outside the cells was masked. Fluorescence was measured using 470-495 excitation and 515-575 emission wavelengths on the FLIPR Tetra. Readings were done for 3 minutes total, beginning 10 seconds before the peptide addition. Maximum-minimum values were calculated and plotted for each peptide concentration, and GraphPad prism software was used to calculate EC50 values at the curve inflection points, for calcium flux stimulation by peptides.

| SMILES | half-life [1] [h] | EC50 (hAPJ) [nM] |
| --- | --- | --- |
| CCCC[C@@H](NC(=O)[C@@H]1CCCN1C(=O)CNC(=O)[C@H](CCCCN)NC(=O)[C@H](Cc1c[nH]cn1)NC(=O)[C@@H](C)NC(=O)[C@H](CC(C)C)NC(=O)[C@H](CCCNC(=N)N)NC(=O)[C@@H]1CCCN1C(=O)[C@H](CCCNC(=N)N)NC(=O)[C@@H]1CCC(=O)N1)C(=O)N[C@@H](Cc1ccccc1)C(=O)O [Example 18, pE-R-P-R-L-a-H-K-G-P-nle-F-OH] ([pGlu]RPRL[dA]HKGP[dNle]F-OH) | 2.04 | 66.5 |
| CCCC[C@@H](NC(=O)[C@@H]1CCCN1C(=O)CNC(=O)[C@H](CCCCN)NC(=O)[C@H](Cc1c[nH]cn1)NC(=O)[C@@H](C)NC(=O)[C@H](CC(C)C)NC(=O)[C@H](CCCNC(=N)N)NC(=O)[C@@H]1CCCN1C(=O)[C@@H](CCCNC(=N)N)NC(=O)[C@@H]1CCC(=O)N1)C(=O)N[C@H](C)C(=O)N[C@H](Cc1ccccc1)C(=O)O [Example 3, pE-r-P-R-L-a-H-K-G-P-nle-a-f-OH] | > 16.7 | 797 |
| CCCC[C@@H](NC(=O)[C@@H]1CCCN1C(=O)CNC(=O)[C@H](CCCCN)NC(=O)[C@H](Cc1c[nH]cn1)NC(=O)[C@@H](C)NC(=O)[C@H](CC(C)C)NC(=O)[C@H](CCCNC(=N)N)NC(=O)[C@@H]1CCCN1C(=O)[C@H](CCCNC(=N)N)NC(=O)[C@@H]1CCC(=O)N1)C(=O)N[C@H](CCC)C(=O)N[C@H](Cc1ccccc1)C(=O)O [Example 54, pE-R-P-R-L-a-H-K-G-P-nle-nva-f-OH] ([pGlu]RPRL[dA]HKGP[dNle][dNva][dF]-OH) | 15 | 0.9 |
| CCCC[C@H](NC(=O)[C@@H]1CCCN1C(=O)CNC(=O)[C@H](CCCCN)NC(=O)C(C)(C)NC(=O)[C@H](CO)NC(=O)[C@H](CC(C)C)NC(=O)[C@H](CCCNC(=N)N)NC(=O)[C@@H]1CCCN1C(=O)[C@H](CCCNC(=N)N)NC(=O)[C@@H]1CCC(=O)N1)C(=O)N[C@H](C)C(=O)N[C@H](Cc1ccccc1)C(=O)O [Example 38, pE-R-P-R-L-S-Aib-K-G-P-Nle-a-f-OH] ([pGlu]RPRLS[Aib]KGP[Nle][dA][dF]-OH) | > 16.7 | 3.3 |
| CCCC[C@@H](NC(=O)[C@@H]1CCCN1C(=O)CNC(=O)[C@H](CCCCN)NC(=O)[C@H](Cc1c[nH]cn1)NC(=O)[C@@H](CCCCN)NC(=O)[C@H](CC(C)C)NC(=O)[C@H](CCCNC(=N)N)NC(=O)[C@@H]1CCCN1C(=O)[C@H](CCCNC(=N)N)NC(=O)[C@@H]1CCC(=O)N1)C(=O)N[C@H](C)C(=O)N[C@H](Cc1ccccc1)C(=O)O [Example 11, pE-R-P-R-L-k-H-K-G-P-nle-a-f-OH] ([pGlu]RPRL[dK]HKGP[dNle][dA][dF]-OH) | > 16.7 | 1060 |
| CCCC[C@@H](NC(=O)[C@@H]1CCCN1C(=O)CNC(=O)[C@H](CCCCN)NC(=O)[C@H](CC(C)C)NC(=O)[C@@H](C)NC(=O)[C@H](CC(C)C)NC(=O)[C@H](CCCNC(=N)N)NC(=O)[C@@H]1CCCN1C(=O)[C@H](CCCNC(=N)N)NC(=O)[C@@H]1CCC(=O)N1)C(=O)N[C@H](C)C(=O)N[C@H](Cc1ccccc1)C(=O)O [Example 47, pE-R-P-R-L-a-L-K-G-P-nle-a-f-OH] ([pGlu]RPRL[dA]LKGP[dNle][dA][dF]-OH) | > 16.7 | 4.4 |
| CCCC[C@@H](NC(=O)[C@@H]1CCCN1C(=O)CNC(=O)[C@@H](CCCCN)NC(=O)C(C)(C)NC(=O)[C@H](CO)NC(=O)[C@H](CC(C)C)NC(=O)[C@H](CCCNC(=N)N)NC(=O)[C@@H]1CCCN1C(=O)[C@H](CCCNC(=N)N)NC(=O)[C@@H]1CCC(=O)N1)C(=O)N[C@H](C)C(=O)N[C@H](Cc1ccccc1)C(=O)O [Example 5, pE-R-P-R-L-S-Aib-k-G-P-nle-a-f-OH] ([pGlu]RPRLS[Aib][dK]GP[dNle][dA][dF]-OH) | > 16.7 | 79.9 |
| CCCC[C@H](NC(=O)[C@@H]1CCCN1C(=O)CNC(=O)[C@@H](CCCCN)NC(=O)[C@H](Cc1c[nH]cn1)NC(=O)[C@@H](C)NC(=O)[C@H](CC(C)C)NC(=O)[C@H](CCCNC(=N)N)NC(=O)[C@@H]1CCCN1C(=O)[C@H](CCCNC(=N)N)NC(=O)[C@@H]1CCC(=O)N1)C(=O)N[C@H](C)C(=O)N[C@H](Cc1ccccc1)C(=O)O [Example 31, pE-R-P-R-L-a-H-k-G-P-Nle-a-f-OH] | 5.78 | 99 |
| CCCC[C@@H](NC(=O)[C@@H]1CCCN1C(=O)CNC(=O)[C@H](CCCCN)NC(=O)[C@H](Cc1c[nH]cn1)NC(=O)[C@@H](C)NC(=O)[C@H](CC(C)C)NC(=O)[C@H](CCCNC(=N)N)NC(=O)[C@@H]1CCCN1C(=O)[C@H](CCCNC(=N)N)NC(=O)[C@@H]1CCC(=O)N1)C(=O)NCCc1ccccc1 [Example 32, pE-R-P-R-L-a-H-K-G-P-nle-NH(Phenethyl)] | 0.795 | – |
| CCCC[C@H](NC(=O)[C@@H]1CCCN1C(=O)CNC(=O)[C@H](CCCCN)NC(=O)[C@H](Cc1c[nH]cn1)NC(=O)[C@@H](C)NC(=O)[C@H](CC(C)C)NC(=O)[C@H](CCCNC(=N)N)NC(=O)[C@@H]1CCCN1C(=O)[C@H](CCCNC(=N)N)NC(=O)[C@@H]1CCC(=O)N1)C(=O)N[C@H](Cc1ccccc1)C(=O)O [Example 35, pE-R-P-R-L-a-H-K-G-P-Nle-f-OH] | > 16.7 | 10.7 |
| CCCC[C@@H](NC(=O)[C@@H]1CCCN1C(=O)CNC(=O)[C@H](CCCCN)NC(=O)[C@@H](C)NC(=O)[C@H](CO)NC(=O)[C@H](CC(C)C)NC(=O)[C@H](CCCNC(=N)N)NC(=O)[C@@H]1CCCN1C(=O)[C@H](CCCNC(=N)N)NC(=O)[C@@H]1CCC(=O)N1)C(=O)N[C@H](C)C(=O)N[C@H](Cc1ccccc1)C(=O)O [Example 51, pE-R-P-R-L-S-a-K-G-P-nle-a-f-OH] ([pGlu]RPRLS[dA]KGP[dNle][dA][dF]-OH) | > 16.7 | 8.5 |
| CCCC[C@@H](NC(=O)[C@@H]1CCCN1C(=O)CNC(=O)[C@H](CCCCN)NC(=O)[C@H](Cc1c[nH]cn1)NC(=O)[C@@H](C)NC(=O)[C@H](CC(C)C)NC(=O)[C@H](CCCNC(=N)N)NC(=O)[C@@H]1CCCN1C(=O)[C@H](CCCNC(=N)N)NC(=O)[C@@H]1CCC(=O)N1)C(=O)N[C@H](C)C(=O)NCCc1ccccc1 [Example 36, pE-R-P-R-L-a-H-K-G-P-nle-a-NH(Phenethyl)] | 2.02 | 16.2 |
| CCCC[C@H](NC(=O)[C@@H]1CCCN1C(=O)CNC(=O)[C@H](CCCCN)NC(=O)C(C)(C)NC(=O)[C@H](CO)NC(=O)[C@H](CC(C)C)NC(=O)[C@H](CCCNC(=N)N)NC(=O)[C@@H]1CCCN1C(=O)[C@H](CCCNC(=N)N)NC(=O)[C@@H]1CCC(=O)N1)C(=O)N1CCC[C@H]1C(=O)N[C@H](Cc1ccccc1)C(=O)O [Example 41, pE-R-P-R-L-S-Aib-K-G-P-Nle-P-f-OH] | 0.703 | 4.5 |
| CCCC[C@@H](NC(=O)[C@@H]1CCCN1C(=O)CNC(=O)[C@H](CCCCN)NC(=O)C(C)(C)NC(=O)[C@@H](C)NC(=O)[C@H](CC(C)C)NC(=O)[C@H](CCCNC(=N)N)NC(=O)[C@@H]1CCCN1C(=O)[C@H](CCCNC(=N)N)NC(=O)[C@@H]1CCC(=O)N1)C(=O)N[C@H](C)C(=O)N[C@H](Cc1ccccc1)C(=O)O [Example 15, pE-R-P-R-L-a-Aib-K-G-P-nle-a-f-OH] ([pGlu]RPRL[dA][Aib]KGP[dNle][dA][dF]-OH) | > 16.7 | 2.1 |
| CCCC[C@@H](NC(=O)[C@@H]1CCCN1C(=O)CNC(=O)[C@H](CCCCN)NC(=O)[C@@H](Cc1ccccc1)NC(=O)[C@@H](C)NC(=O)[C@H](CC(C)C)NC(=O)[C@H](CCCNC(=N)N)NC(=O)[C@@H]1CCCN1C(=O)[C@H](CCCNC(=N)N)NC(=O)[C@@H]1CCC(=O)N1)C(=O)N[C@H](C)C(=O)N[C@H](Cc1ccccc1)C(=O)O [Example 46, pE-R-P-R-L-a-f-K-G-P-nle-a-f-OH] ([pGlu]RPRL[dA][dF]KGP[dNle][dA][dF]-OH) | 8.87 | 9.2 |
| CCCC[C@@H](NC(=O)[C@@H]1CCCN1C(=O)CNC(=O)[C@H](CCCCN)NC(=O)[C@H](Cc1c[nH]cn1)NC(=O)[C@@H](C)NC(=O)[C@H](CC1CCCCC1)NC(=O)[C@H](CCCNC(=N)N)NC(=O)[C@@H]1CCCN1C(=O)[C@H](CCCNC(=N)N)NC(=O)[C@@H]1CCC(=O)N1)C(=O)N[C@H](C)C(=O)N[C@H](Cc1ccccc1)C(=O)O [Example 23, pE-R-P-R-Cha-a-H-K-G-P-nle-a-f-OH] ([pGlu]RPR[Cha][dA]HKGP[dNle][dA][dF]-OH) | 2.08 | 2.8 |
| CCCC[C@@H](NC(=O)[C@@H]1CCCN1C(=O)CNC(=O)[C@H](CCCCN)NC(=O)[C@H](Cc1c[nH]cn1)NC(=O)[C@@H](C)NC(=O)[C@H](Cc1ccc(O)cc1)NC(=O)[C@H](CCCNC(=N)N)NC(=O)[C@@H]1CCCN1C(=O)[C@H](CCCNC(=N)N)NC(=O)[C@@H]1CCC(=O)N1)C(=O)N[C@H](C)C(=O)N[C@H](Cc1ccccc1)C(=O)O [Example 28, pE-R-P-R-Y-a-H-K-G-P-nle-a-f-OH] ([pGlu]RPRY[dA]HKGP[dNle][dA][dF]-OH) | > 16.7 | 114 |
